Key:
[1] = test system: monoclonal antibody 5-21-3; assay: Immunoprecipitation of [125I] synthetic peptides by 5-21-3; assay type: binding, mouse; settings: for SPECIFIC PRECIPITATION (CPM) by 5-21-3 / x-fold increase of specific over non-specific precipitation, 5-21-3: 5-21-3 10 μg/0.2 ml, second antibody precipitation; for SPECIFIC PRECIPITATION (CPM) by 5-21-3: PBS, 0.1% Triton X-100, 1.0% BSA, carrier serum; for x-fold increase of specific over non-specific precipitation, 5-21-3: vs normal mouse IgG
Experimental: (§1) Synthetic peptides were radiolabeled with ^125I (Amersham) by the chloramine T method (N. M. Hunter, “Radioimmunoassay” in D. M. Weir, Ed., Handbook of Experimental Immunology, [Blackwell Scientific Publications, 1973]). Generally, 2-6 ul of 100 mCi/ml ^125I were added to 10-50 ug of peptide in PBS, pH 7.4. Approximately 10 ug of freshly prepared (1 mg/ml in PBS) chloramine T were added to the mixture maintained at 4° C. After 5 min., [^125I]peptide was separated from free ^125I by passage of the reaction mixture through a 3 ml (bed volume) column of Biogel P-6 or P-2, as required. Fractions (200 ul each) containing [^125I]peptide were pooled and diluted into PBS containing 20% fetal calf serum. Rough estimations of ^125I cpm bound to peptide were made by acid precipitation. An aliquot of labeled peptide was diluted into 1 ml of ice cold 50% trichloroacetic acid (TCA) overlaying a 0.45 um filter (made of mixed cellulose esters) set on a scintered glass filter connected to a vacuum apparatus. Precipitated protein was fixed onto the filter by application of vacuum, and filters were washed with ice-cold 50% TCA. Background cpm adhering non-specifically to the filter were estimated by repeating the procedure using a non-precipitating buffer. Amounts of peptide, ^125I, chloramine T, and composition of column eluting buffer were subject to change depending on conditions required to maintain solubility of each peptide.
(§2) Synthetic peptides radiolabeled with ^125I were diluted into PBS (pH 7.4) containing 0.1% Triton X-100 (or other detergents where indicated) and 1.0% BSA, to yield approximately 2.5-5×10^5 acid-precipitable cpm per 0.1 ml. Purified monoclonal IgG 5-21-3 and 10-15-63 were employed in the assay. Monoclonal antibodies were diluted into PBS containing 0.1% Triton X-100 (or other detergents where indicated), 1.0% BSA, and 2% normal mouse serum as a carrier immunoglobulin. Immune rabbit serum (anti-P58-130) was diluted appropriately into the same buffer except that normal rabbit serum (2%) was substituted for normal mouse serum as the carrier immunoglobulin. A reaction mixture comprising 0.1 ml [^125I] peptide (5×10^5 cpm/0.1 ml) and 0.1 ml diluted antibody was incubated 1 hr at 40° C., followed by addition of 0.1 ml of a precipitating antibody, either goat anti-mouse IgG, or goat anti-rabbit IgG, corresponding to the primary antibody. The reaction mixture was incubated 1 hr at 40° C. and then overnight at 4° C. […] Precipitation assays employing Protein A-Sepharose as the precipitating reagent were performed in a similar manner, except that normal sera were omitted from the reaction mixtures.

[2] = test system: monoclonal antibody 10-15-63; assay: Immunoprecipitation of [125I] synthetic peptides by 10-15-63; assay type: binding, mouse; settings: for SPECIFIC PRECIPITATION (CPM) by 10-15-63 / x-fold increase of specific over non-specific precipitation, 10-15-63: 10-15-63 10 μg/0.2 ml, second antibody precipitation; for SPECIFIC PRECIPITATION (CPM) by 10-15-63: PBS, 0.1% Triton X-100, 1.0% BSA, carrier serum; for x-fold increase of specific over non-specific precipitation, 10-15-63: vs normal mouse IgG
Experimental: as §1, §2

[3] = test system: Rabbit (R) anti-P58-130 serum; assay: Immunoprecipitation of [125I] synthetic peptides by rabbit anti-P58-130 serum; assay type: binding; settings: for SPECIFIC PRECIPITATION (CPM) by RαP58-130 / x-fold increase of specific over non-specific precipitation, RαP58-130: rabbit anti-P58-130 serum 20 ul/0.2 ml, second antibody precipitation; for x-fold increase of specific over non-specific precipitation, RαP58-130: vs normal rabbit serum
Experimental: as §1, §2

[4] = test system: binding of antibody 5-21-3 to rp41; assay: Binding inhibition assay: peptides inhibit binding of 5-21-3 to rp41; parameters: species or system HIV I; settings: for Molar Ratio at 50% inhibition of 5-21-3 binding: mean of two experiments, 0.4 pmol 5-21-3 IgG per well
Experimental: Additional evidence for the conformationl nature of the 5-21-3 epitope was obtained using binding inhibition studies, in which synthetic peptides were ranked for their ability to inhibit binding of 5-21-3 to rp41. First, the Fab dimer of an anti-gp41 monoclonal antibody was prepared by conventional methods (Goding et al., supra). Then 100 ul of a 1 mg/ml solution of the Fab dimer in bicarbonate buffer (pH 9.6) was coated onto Immulon II microtiter plates for 1 hr at 37° C. After washing with PBS containing 0.05% Tween 20, the plates were overcoated with 200 ul of 1.0% ovalbumin in bicarbonate buffer (pH 9.6) for 1 hr at 30° C. After washing, 100 ul of rp41 enriched E. coli lysate (as described in Example 3), diluted appropriately in PBS containing 0.05% Tween 20, were allowed to bind to the Fab dimer for 2 hr at 30° C. The plates were washed and stored at 4° C.
Intact monoclonal antibody 5-21-3 IgG (purified from tissue culture fluid supporting growth of the cloned cell line 5-21-3) was titrated against the bound rp41 on the plate, and an antibody concentration was selected which yielded an A492 value of 2.0-3.0. Usually, 0.4 pmol (0.06 ug) of 5-21-3 IgG per microtiter well was employed in these assays. Stock solutions of 5-21-3 IgG were prepared in PBS containing 0.1% Triton X-100 and 0.1% SDS. Dilutions of synthetic peptides were made in the same buffer (SDS was included in these experiments to keep peptides soluble at high concentrations).
The binding inhibition assay was performed by combining 0.15 ml of 1.2 ug/ml 5-21-3 antibody stock solution with 0.15 ml of peptide at a selected peptide concentration, and incubating the reaction mixture 1 hr at room temp. Then 0.1 ml aliquots of each reaction mixture were added to each of two wells in the microtiter tray. After a 1 hr incubation at room temp., the plates were washed, and HRPO conjugated Goat anti-mouse IgG Fc was added for 1 hr at room temp. The plates were washed, and addition of OPD for color development identified the relative amounts of 5-21-3 bound to rp41 in the microtiter wells. The reaction was stopped by addition of 100 ul of 1N H2SO4, and the plates were read on a Dynatech II microtiter plate reader.

[5] = test system: monoclonal antibody 5-21-3; assay: Immuno-dot blot of synthetic peptides with 5-21-3; assay type: binding, mouse; settings: 25 ug/ml 5-21-3; mild washing procedures
Description: The western Blot procedure described in Example 1 was employed for development of immuno-dot blots using synthetic peptides, except that synthetic peptides were fixed to nitrocellulose by direct application using Drummond lambda pipettes, and air dried prior to blocking with 20% fetal calf serum in PBS (pH 7.4).

Row | Substance | binding of [125I]peptide by 5-21-3 (immunoprecipitation), in words [1] | SPECIFIC PRECIPITATION (CPM) by 5-21-3 [1] | x-fold increase of specific over non-specific precipitation, 5-21-3 [1] | SPECIFIC PRECIPITATION (CPM) by 10-15-63 [2] [CPM] | x-fold increase of specific over non-specific precipitation, 10-15-63 [2] | SPECIFIC PRECIPITATION (CPM) by RαP58-130 [3] | x-fold increase of specific over non-specific precipitation, RαP58-130 [3] | inhibition of 5-21-3 binding to rp41, in words [4] | Molar Ratio at 50% inhibition of 5-21-3 binding [4] | SPECIFIC PRECIPITATION (CPM) ([1]; 5-21-3 1.0 μg/ml final) | x-fold increase of specific over non-specific precipitation ([1]; 5-21-3 1.0 μg/ml final) | SPECIFIC PRECIPITATION (CPM) ([1]; 5-21-3 10.0 μg/ml final) | x-fold increase of specific over non-specific precipitation ([1]; 5-21-3 10.0 μg/ml final) | SPECIFIC PRECIPITATION (CPM) ([1]; 5-21-3 100.0 μg/ml final) | x-fold increase of specific over non-specific precipitation ([1]; 5-21-3 100.0 μg/ml final) | SPECIFIC PRECIPITATION (CPM) ([2]; 10-15-63 1.0 μg/ml final) | x-fold increase of specific over non-specific precipitation ([2]; 10-15-63 1.0 μg/ml final) | SPECIFIC PRECIPITATION (CPM) ([2]; 10-15-63 10.0 μg/ml final) | x-fold increase of specific over non-specific precipitation ([2]; 10-15-63 10.0 μg/ml final) | SPECIFIC PRECIPITATION (CPM) ([2]; 10-15-63 100.0 μg/ml final) | other results
1 | IHSLIEESQNQQEKNEQELLELDKWANLWNWLNITNWLWYIKLFI [P131-175] | Little or no binding activity | 317 CPM | (1.6) x-fold | 188 | (1.4) x-fold | 0 CPM | (<1) x-fold | definite inhibitor | 18,815 pmoles peptide/pmoles 5-21-3 | – | – | – | – | – | – | – | – | – | – | – | –
2 | IHSLIEESQNQQEKNEQELLELDK [P131-154] | unable to bind | 970 CPM | (1.1) x-fold | 0 | (<1) x-fold | 0 CPM | (<1) x-fold | could not be demonstrated | >50,000 pmoles peptide/pmoles 5-21-3 | 0 | (0) x-fold | 0 CPM | (0) x-fold | 0 CPM | (0) x-fold | 0 | (0) x-fold | 0 | (0) x-fold | 112 | 5-21-3 concentration required to demonstrate binding of the peptide ([1]; immunoprecipitation, Table 5): could not be demonstrated; x-fold increase of specific over non-specific precipitation ([2]; 10-15-63 100.0 μg/ml final): (1.1) x-fold
3 | YNYTSLIHSLIEESQNQQEKNEQELLELDKWANLWNWL [P126-162] | recognized by 5-21-3 | 11,540 CPM | (3.4) x-fold | 0 | (<1) x-fold | 0 CPM | (<1) x-fold | roughly equivalent to that of P121-154 | 1,585 pmoles peptide/pmoles 5-21-3 | 0 | (0) x-fold | 295 CPM | (1.1) x-fold | 4,924 CPM | (1.6) x-fold | 0 | (0) x-fold | 0 | (0) x-fold | 0 | immuno-dot blot reactivity with 5-21-3 [5]: additional 5-21-3 reactivity was observed; x-fold increase of specific over non-specific precipitation ([2]; 10-15-63 100.0 μg/ml final): (0) x-fold
4 | NH2-Asp-Arg-Glu-Ile-Asn-Asn-Tyr-Thr-Ser-Leu-Ile-His-Ser-Leu-Ile-Glu-Glu -Ser-Gln-Asn-Gln-Gln-Glu-Lys-Asn-Glu-Gln-Glu-Leu-Leu-Glu-Leu-Asp-Lys-COOH (H-DREINNYTSLIHSLIEESQNQQEKNEQELLELDK-OH) [P121-154] | recognized by 5-21-3 | 40,717 CPM | (31) x-fold | 371 | (1.3) x-fold | 310,419 CPM | (24) x-fold | potent inhibitor | 1,494 pmoles peptide/pmoles 5-21-3 | 0 | (0) x-fold | 1,113 CPM | (2.3) x-fold | 18,984 CPM | (13) x-fold | 0 | (0) x-fold | 0 | (0) x-fold | 0 | immuno-dot blot reactivity with 5-21-3 [5]: faint, diffuse reaction; x-fold increase of specific over non-specific precipitation ([2]; 10-15-63 100.0 μg/ml final): (0) x-fold; precipitation of [125I]peptide by rabbit anti-P58-130, in words [3]: strong precipitator; fold less active than P67-154 in binding inhibition [4]: 20 fold; fold restoration of binding inhibition activity relative to P131-154 [4]: 20-65 fold

Reference: patent US20030118985A1, “Mouse monoclonal antibody (5-21-3) to human immunodeficiency virus gp41 protein” (priority 1997, published 2003)
